This note sets out measurements from patent US5294603A, “Pharmaceutical compositions containing didemnins” (The Board of Trustees of The University of Illinois, priority 1992, dated 1994).

The test system of series [1] is L1210 cells.
Series [2] concerns Visna virus (VIV). The series is classed as cell-based. The arrangement: key to % Protection / VIV Protection: I, indeterminate.
Series [3] relates to cells of the VIV assay (not named).
The test system of series [4] is BHK = Baby hamster kidney cells.
Series [5] has as its system L1210 murine leukemia cells. The following applies: Table 9.
The test system of series [6] is Nb2 cells, rat T-cell node lymphoma. Description: Competitive binding with [3H]didemnin B to Nb2 cells. The following applies: 3 h at 37° C. The procedure: The immunosuppressive assay was performed by measuring competitive binding of tested compounds with [^3 H]didemnin B to Nb2 cells, rat T-cell node lymphoma. See, Russell, D. H., et al., J. Immunology, 1987, 138, 276-284.
^a Competing didemnins incubated with approximately 25 ng of [^3

Series [7] concerns DNA synthesis in Nb2 node lymphoma cells. The series is described as follows: Inhibition of ongoing DNA synthesis in prolactin-stimulated Nb2 cells. In kind it is cell-based, rat. Particulars: Nb2 cells stimulated with prolactin for 24 h. On the procedure: Also inhibitions of protein and DNA synthesis of several compounds were measured using Nb2 node lymphoma cells which were stimulated by a treatment of cells with prolactin. (ibid.)
^a Nb2 cells were stimulated with prolactin for 24 h, then exposed to
^b 50% Inhibitory concentration, calculated with linear regression

Series [8] has as its system L1210. The series is described as follows: L1210 cytotoxicity, inhibition at fixed doses (Table 10). In kind it is cell-based, murine.
Series [9] relates to L1210.

Values after ≈ are worked out from the molar mass of the structure shown. Read-outs that look alike come from different tables or passages of the source. Numbered stars: 1 amine (or outer) side, 2 acyl side, 3 side chain; on linkers, the order of the positions; unused ones are H or OH. Bridge positions count the residues as written; N and C are the ends. Square brackets hold non-standard residues; d marks the D form. Peptide text beside a SMILES is read from it. * marks the point of attachment. X1 = CC[C@H](C)[C@@H](N[*:1])[C@@H](O)CC(=O)O[C@H](C(=O)[C@H](C)C(=O)[*:2])C(C)C; NMeY = CN[C@@H](Cc1ccc(O)cc1)C(=O)O; dNMeL = CN[C@H](CC(C)C)C(=O)O; Isobutyryl = CC(C)C(=O)*; Aze = O=C(O)[C@@H]1CCN1; Pyruvoyl = CC(=O)C(=O)*; Propionyl = CCC(=O)*; Sar = CNCC(=O)O

With `CC[C@H](C)[C@H]1NC(=O)[C@@H](NC(=O)[C@@H](CC(C)C)N(C)C(=O)[C@@H]2CCN2C(=O)C(C)=O)[C@@H](C)OC(=O)[C@H](Cc2ccc(OC)cc2)N(C)C(=O)[C@@H]2CCCN2C(=O)[C@H](CC(C)C)NC(=O)[C@@H](C)C(=O)[C@H](C(C)C)OC(=O)C[C@@H]1O` [Pyruv-Azt-DA, Pyruv-Azt Didemnin A] (Pyruvoyl-[Aze][dNMeL]T[X1]LP[NMeY](Me); ester 3-C), the IC50 in [1] came to 0.6 ng/mL (≈ 0.547 nM). In series [2], the “% Protection” value was “I”. Moreover, the “% Cytotoxicity” value in series [3] is listed as 77.

For the compound `CC[C@H](C)[C@H]1NC(=O)[C@@H](NC(=O)[C@@H](CC(C)C)N(C)C(=O)[C@@H]2CCCN2)[C@@H](C)OC(=O)[C@H](Cc2ccc(OC)cc2)N(C)C(=O)[C@@H]2CCCN2C(=O)[C@H](CC(C)C)NC(=O)[C@@H](C)C(=O)[C@H](C(C)C)OC(=O)C[C@@H]1O` [N-(L-Pro)Didemnin A (100), N-(L-Prolyl) didemnin A] (H-P[dNMeL]T[X1]LP[NMeY](Me); ester 3-C), the BHK in [4] is given as 0, PT. The “Cytotoxicity L1210 IC50” value in series [5] amounted to 4 ng/mL. For the same compound, in series [2], the “VIV Protection” value was less than 0.

Regarding `Cc1cn([C@H]2C[C@H](N=[N+]=[N-])[C@@H](CO)O2)c(=O)[nH]c1=O` [AZT, reference compound], the “% Cytotoxicity” value in series [3] (1 µM) was determined as 5; in [3] (3 µM), 7; in series [3] (10 µM), 11; in [3] (30 µM) it was 14.

For `CCC(=O)N1CCC[C@H]1C(=O)N(C)[C@H](CC(C)C)C(=O)N[C@@H]1C(=O)N[C@H]([C@@H](C)CC)[C@@H](O)CC(=O)O[C@@H](C(C)C)C(=O)[C@H](C)C(=O)N[C@@H](CC(C)C)C(=O)N2CCC[C@H]2C(=O)N(C)[C@@H](Cc2ccc(OC)cc2)C(=O)O[C@@H]1C` [[Propionyl^9] Didemnin B (104), [Propionyl^9]didemnin B] (Propionyl-P[dNMeL]T[X1]LP[NMeY](Me); ester 3-C), the BHK in [4] was 0, PT. Besides, the “Cytotoxicity L1210 IC50” value in [5] turned out to be 0.2 ng/mL. Also, the “VIV Protection” value in [2] was -113.

Turning to `CC[C@H](C)[C@H]1NC(=O)[C@@H](NC(=O)[C@@H](CC(C)C)NC)[C@@H](C)OC(=O)[C@H](Cc2ccc(OC)cc2)N(C)C(=O)[C@@H]2CCCN2C(=O)[C@H](CC(C)C)NC(=O)[C@@H](C)C(=O)[C@H](C(C)C)OC(=O)C[C@@H]1OC(C)=O` [O-Acetyldidemnin A (114), O-Acetyldidemnin A], the “Inhibition of [3H]didemnin B binding (%)” value in series [6] (0.001 μg/mL) was found to be 1%; in series [6] (0.01 μg/mL), 4%; in series [6] (0.1 μg/mL), 15%; in [6] (1 μg/mL) it was 10%. In addition, in series [4], the BHK is reported as 0, PT. In addition, the “IC50 DNA” value in [7] was 270,000 ng/mL. For the same compound, the “Cytotoxicity L1210 IC50” value in [5] was determined as 300 ng/mL.

On to `CC[C@H](C)[C@H]1NC(=O)[C@@H](NC(=O)[C@@H](CC(C)C)N(C)C(=O)[C@H]2CCCN2C(=O)C(C)C)[C@@H](C)OC(=O)[C@H](Cc2ccc(OC)cc2)N(C)C(=O)[C@@H]2CCCN2C(=O)[C@H](CC(C)C)NC(=O)[C@@H](C)C(=O)[C@H](C(C)C)OC(=O)C[C@@H]1O` [[Isobutyryl^9 -D-Pro^8]didemnin B] (Isobutyryl-[dP][dNMeL]T[X1]LP[NMeY](Me); ester 3-C), for which the “Inhibition of [3H]didemnin B binding (%)” value is given as 0% in [6] (0.001 μg/mL), 0% in [6] (0.01 μg/mL), 25% in series [6] (0.1 μg/mL) and 69% in series [6] (1 μg/mL). Further, the BHK in series [4] is 0, PT. For the same compound, the “Cytotoxicity L1210 IC50” value in series [5] was found to be 10 ng/mL.

For the compound `CC[C@H](C)[C@H]1NC(=O)[C@@H](NC(=O)[C@@H](CC(C)C)N(C)C(=O)CN(C)C(=O)C(C)=O)[C@@H](C)OC(=O)[C@H](Cc2ccc(OC)cc2)N(C)C(=O)[C@@H]2CCCN2C(=O)[C@H](CC(C)C)NC(=O)[C@@H](C)C(=O)[C@H](C(C)C)OC(=O)C[C@@H]1O` [Pyruv-Sar-DA, Pyruv-Sar Didemnin A] (Pyruvoyl-[Sar][dNMeL]T[X1]LP[NMeY](Me); ester 3-C), in [1], half-maximal inhibition (IC50) required 1 ng/mL (≈ 0.922 nM) and the “cytotoxicity” value is “completely inactive”. Also, the “% Protection” value in series [2] was “I”.

With `CC[C@H](C)[C@H]1NC(=O)[C@@H](NC(=O)[C@@H](CC(C)C)NC)[C@@H](C)OC(=O)[C@H](Cc2ccc(OC)cc2)N(C)C(=O)[C@@H]2CCCN2C(=O)[C@H](CC(C)C)NC(=O)[C@@H](C)C(=O)[C@H](C(C)C)OC(=O)C[C@@H]1O` [Didemnin A (1), Didemnin A, reference compound] (H-[dNMeL]T[X1]LP[NMeY](Me); ester 2-C), the “Inhibition (%)” value in series [8] (dose 25 ng/mL, tested 4/22/1990) stood at 80%; in series [8] (dose 250 ng/mL, tested 4/22/1990), 100%. Besides, the “Cytotoxicity percent L1210 inhibition” value in [9] (dose 5 ng/mL) came out at 0%; in series [9] (dose 12.5 ng/mL), 19%; in series [9] (dose 25 ng/mL), 25%. For the same compound, the “Inhibition of [3H]didemnin B binding (%)” value in series [6] (0.001 μg/mL) worked out at 3%; in [6] (0.01 μg/mL), 8%; in series [6] (0.1 μg/mL) it was 20%; in series [6] (1 μg/mL), 35%. Besides, the “IC50 DNA” value in series [7] is 2000 ng/mL (≈ 2120 nM). Also, in [5], the “Cytotoxicity L1210 IC50” value is reported as 30 ng/mL. For the same compound, in [2], the “VIV Protection” value is less than 0.

For the compound `CC[C@H](C)[C@H]1NC(=O)[C@@H](NC(=O)[C@@H](CC(C)C)N(C)C(=O)[C@@H]2CCCN2C(=O)C(C)O)[C@@H](C)OC(=O)[C@H](Cc2ccc(OC)cc2)N(C)C(=O)[C@@H]2CCCN2C(=O)[C@H](CC(C)C)NC(=O)[C@@H](C)C(=O)[C@H](C(C)C)OC(=O)C[C@@H]1O` (stereo partly shown) [Didemnin B (17), Didemnin B, reference compound], the “Inhibition (%)” value amounted to 99% in [8] (dose 25 ng/mL, tested 4/18/1991) and 99% in series [8] (dose 250 ng/mL, tested 4/18/1991). In addition, the “Cytotoxicity percent L1210 inhibition” value in [9] (dose 5 ng/mL) turned out to be 93%; in series [9] (dose 12.5 ng/mL), 95%; in [9] (dose 25 ng/mL), 95%. Moreover, the “Inhibition of [3H]didemnin B binding (%)” value in [6] (0.001 μg/mL) amounted to 3%; in series [6] (0.01 μg/mL), 7%; in series [6] (0.1 μg/mL), 59%; in series [6] (1 μg/mL) it was 77%. The “IC50 DNA” value in series [7] is 90 ng/mL (≈ 80.9 nM). For the same compound, the “Cytotoxicity L1210 IC50” value in [5] was 0.5 ng/mL. The same compound had an IC50 in [1] of 0.5 ng/mL (≈ 0.449 nM).

As for `COc1ccc(C[C@H]2C(=O)O[C@H](C)[C@H](NC(=O)C(CC(C)C)N(C)C(=O)[C@@H]3CCCN3C(=O)[C@H](C)O)C(=O)N[C@H](C(C)C)[C@@H](O)CC(=O)O[C@@H](C(C)C)C(=O)[C@H](C)C(=O)N[C@@H](CC(C)C)C(=O)N3CCC[C@H]3C(=O)N2C)cc1` (stereo partly shown) [Nordidemnin B (22), Nordidemnin B], in series [4], the BHK is reported as 0, PT. Also, the “Cytotoxicity L1210 IC50” value in [5] is recorded as 1 ng/mL. Also, the “VIV Protection” value in series [2] was -25.

With `CC[C@H](C)[C@H]1NC(=O)[C@@H](NC(=O)[C@@H](CC(C)C)N(C)C(=O)[C@@H](N)CC(C)C)[C@@H](C)OC(=O)[C@H](Cc2ccc(OC)cc2)N(C)C(=O)[C@@H]2CCCN2C(=O)[C@H](CC(C)C)NC(=O)[C@@H](C)C(=O)[C@H](C(C)C)OC(=O)C[C@@H]1O` [N-(L-Leu)Didemnin A (99), N-(L-Leu)didemnin A] (H-L[dNMeL]T[X1]LP[NMeY](Me); ester 3-C), the BHK in series [4] was 0, PT. In series [5], the “Cytotoxicity L1210 IC50” value turned out to be 4 ng/mL.

For the compound `CCC(=O)N(C)[C@H](CC(C)C)C(=O)N[C@@H]1C(=O)N[C@H]([C@@H](C)CC)[C@@H](O)CC(=O)O[C@@H](C(C)C)C(=O)[C@H](C)C(=O)N[C@@H](CC(C)C)C(=O)N2CCC[C@H]2C(=O)N(C)[C@@H](Cc2ccc(OC)cc2)C(=O)O[C@@H]1C` [(N-Propionyl)Didemnin A (98), N-propionyl-didemnin A] (Propionyl-[dNMeL]T[X1]LP[NMeY](Me); ester 2-C), the “cytotoxicity (result in words)” value in series [9] (Table 1 footnote and text) is on record as “retained the cytotoxicity of didemnin B”. Besides, the results for the “Cytotoxicity percent L1210 inhibition” value in series [9] (dose 5 ng/mL), in series [9] (dose 12.5 ng/mL) and in series [9] (dose 25 ng/mL) were 93%, 95% and 95%, respectively. Moreover, the “Inhibition of [3H]didemnin B binding (%)” value is recorded as 3% in series [6] (0.001 μg/mL), 2% in series [6] (0.01 μg/mL), 40% in series [6] (0.1 μg/mL) and 72% in [6] (1 μg/mL). For the same compound, the BHK in series [4] is listed as 0, PT. The “Cytotoxicity L1210 IC50” value in [5] was 0.3 ng/mL. Also, the “VIV Protection” value in [2] was “I”. In addition, the “VIV Toxicity” value in series [3] was 92.

Usually IC50 stands for the midpoint of a concentration-inhibition curve.
